The source of these data is PMC7920280, “The Multi-Targeting Ligand ST-2223 with Histamine H3 Receptor and Dopamine D2/D3 Receptor Antagonist Properties Mitigates Autism-Like Repetitive Behaviors and Brain Oxidative Stress in Mice” (International Journal of Molecular Sciences, 2021).

The target of test [1] is EqBuChE (Equus caballus, UniProt P81908). The test is described as follows: Butyrylcholinesterase inhibition, modified Ellman's method. The test is classed as biochemical, equine. The note with it: 1 μM (1000 nM) of compound; preliminary data, n = 2.
Chain of EqBuChE (P81908 whole entry): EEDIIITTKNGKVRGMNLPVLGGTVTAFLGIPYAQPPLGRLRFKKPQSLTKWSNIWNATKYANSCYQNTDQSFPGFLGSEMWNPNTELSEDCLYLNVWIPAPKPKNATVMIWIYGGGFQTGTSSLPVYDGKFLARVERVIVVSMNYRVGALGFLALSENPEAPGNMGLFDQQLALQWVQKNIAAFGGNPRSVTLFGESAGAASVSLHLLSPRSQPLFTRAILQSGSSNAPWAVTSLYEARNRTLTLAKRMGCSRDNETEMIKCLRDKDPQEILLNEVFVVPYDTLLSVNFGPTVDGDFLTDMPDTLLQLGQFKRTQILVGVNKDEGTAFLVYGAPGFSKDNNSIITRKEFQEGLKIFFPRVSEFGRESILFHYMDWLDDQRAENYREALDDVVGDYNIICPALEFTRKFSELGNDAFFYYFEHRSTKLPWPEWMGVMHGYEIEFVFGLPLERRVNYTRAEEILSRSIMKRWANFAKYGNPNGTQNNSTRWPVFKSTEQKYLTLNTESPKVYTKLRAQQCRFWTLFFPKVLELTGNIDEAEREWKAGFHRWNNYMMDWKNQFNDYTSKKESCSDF
On the set-up of test [2]: method as in PMID 31647973. The note with it: systemic pretreatment; cited from earlier work.

A value given as a limit tells only on which side of the number the result lay.

What is called inhibition is how much of the control response was suppressed. The low end stands for a weak effect, the high end for a strong effect. In the case of `COc1ccccc1N1CCN(CCCCNC(=O)c2ccc3cc(OCCCN4CCCCC4)ccc3c2)CC1` [ST-2223, N-(4-(4-(2-methoxyphenyl)piperazin-1-yl)butyl)-6-(3-(piperidin-1-yl)propoxy)-2-naphthamide], in test [1], the inhibition at 1 µM was under 30%. On to `O=C1CCc2ccc(OCCCCN3CCN(c4cccc(Cl)c4Cl)CC3)cc2N1` [ARP, aripiprazole], for which, in test [2], the “enhanced frequency of self-grooming induced by neuromedin U” value is listed as “attenuation”.
